According to patent US10214531B2 (Institute for Drug Discovery, LLC, priority 2013, dated 2019):
Counter-ions that a name gives are not always drawn.

Target: recombinant human AMCase (Homo sapiens, UniProt Q9BZP6)
Experiment: Human AMCase Activity Assay
Type: biochemical
Conditions: recombinant hAMCase, 4-methylumbelliferyl chitobioside substrate, citrate buffer pH 5.2, 37° C., 60 minutes; read-out: Activity (IC50 value key)
Summary of the method: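 Recombinant human enzyme with fluorogenic 4-methylumbelliferyl β-D-N,N′-diacetylchitobioside substrate in citrate buffer, pH 5.2, 60 min at 37 °C in the dark with shaking. Read-out is 4MU fluorescence at 460 nm.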

Chain of recombinant human AMCase (Q9BZP6 22-476): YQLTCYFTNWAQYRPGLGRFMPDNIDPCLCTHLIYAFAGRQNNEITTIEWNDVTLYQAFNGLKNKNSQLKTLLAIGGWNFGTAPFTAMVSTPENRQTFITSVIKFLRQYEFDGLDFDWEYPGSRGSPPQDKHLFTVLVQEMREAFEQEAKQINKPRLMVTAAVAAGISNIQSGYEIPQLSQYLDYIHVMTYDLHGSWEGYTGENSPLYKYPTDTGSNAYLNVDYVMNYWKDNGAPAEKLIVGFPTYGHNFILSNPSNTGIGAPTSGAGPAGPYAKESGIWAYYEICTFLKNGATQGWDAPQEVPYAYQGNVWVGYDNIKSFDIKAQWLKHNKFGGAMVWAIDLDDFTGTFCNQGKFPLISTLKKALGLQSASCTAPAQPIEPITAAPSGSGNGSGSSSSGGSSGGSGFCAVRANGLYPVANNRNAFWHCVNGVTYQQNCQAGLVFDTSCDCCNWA

Structure (SMILES)	IC50
CC(COc1ccc(Br)cc1)N1CCN(c2nc(N)n[nH]2)CC1 (stereo not drawn) [Example 20-2, 5-(4-(1-(4-bromophenoxy)propan-2-yl)piperazin-1-yl)-1H-1,2,4-triazol-3-amine]	10 to 100 µM
CN(CCc1c(Cl)cccc1Cl)C1CCN(c2nc(N)n[nH]2)CC1 [Example 184, 1-(3-amino-1H-1,2,4-triazol-5-yl)-N-(2,6-dichlorophenethyl)-N-methylpiperidin-4-amine]	1 to 10 µM
Nc1n[nH]c(N2CCC(NC(=O)C(O)c3ccc(Cl)cc3)CC2)n1 (stereo not drawn) [Example 71, N-(1-(3-amino-1H-1,2,4-triazol-5-yl)piperidin-4-yl)-2-(4-chlorophenyl)-2-hydroxyacetamide]	> 100 µM
CN(Cc1nc2ccccc2[nH]1)C1CCN(c2nc(N)n[nH]2)CC1 [Example 136, N-((1H-benzo[d]imidazol-2-yl)methyl)-1-(3-amino-1H-1,2,4-triazol-5-yl)-N-methylpiperidin-4-aminetrihydrochloride]	> 100 µM
CC(Cc1ccc(Cl)cc1)N(Cc1ccccc1)C1CCN(c2nc(N)n[nH]2)CC1 (stereo not drawn) [Example 159, 1-(3-amino-1H-1,2,4-triazol-5-yl)-N-benzyl-N-(1-(4-chlorophenyl)propan-2-yl)piperidin-4-amine dihydrochloride]	< 0.1 µM
Nc1n[nH]c(N2CCC(N(CCc3ccc(Cl)cc3)[C@H](CO)c3ccccc3)CC2)n1 [Example 135, (S)-2-((1-(3-amino-1H-1,2,4-triazol-5-yl)piperidin-4-yl)(4-chlorophenethyl)amino)-2-phenylethan-1-ol]	< 0.1 µM
Nc1n[nH]c(N2CCC(C(=O)NCC3CCC(F)(F)CC3)CC2)n1 [Example 207, 1-(3-amino-1H-1,2,4-triazol-5-yl)-N-((4,4-difluorocyclohexyl)methyl)piperidine-4-carboxamide]	> 100 µM
Nc1n[nH]c(N2CCC(C(=O)NCc3ccc(F)cc3C(F)(F)F)CC2)n1 [Example 50, 1-(3-amino-1H-1,2,4-triazol-5-yl)-N-(4-fluoro-2-(trifluoromethyl)benzyl)piperidine-4-carboxamide]	> 100 µM
Cc1oc(C(F)(F)F)cc1CNC(=O)C1CCN(c2nc(N)n[nH]2)CC1 [Example 202, 1-(3-amino-1H-1,2,4-triazol-5-yl)-N-((2-methyl-5-(trifluoromethyl)furan-3-yl)methyl)piperidine-4-carboxamide]	> 100 µM
Nc1n[nH]c(N2CCN(CCOc3cccc(Cl)c3)CC2)n1 [Example 86, 5-(4-(2-(3-chlorophenoxy)ethyl)piperazin-1-yl)-1H-1,2,4-triazol-3-amine]	10 to 100 µM
Nc1n[nH]c(N2CCC(C(=O)NCc3cccc4ccccc34)CC2)n1 [Example 195, 1-(3-amino-1H-1,2,4-triazol-5-yl)-N-(naphthalen-1-ylmethyl)piperidine-4-carboxamide]	> 100 µM
CN(CCc1ccc2c(c1)OCO2)C1CCN(c2nc(N)n[nH]2)CC1 [Example 170, 1-(3-amino-1H-1,2,4-triazol-5-yl)-N-(2-(benzo[d][1,3]dioxol-5-yl)ethyl)-N-methylpiperidin-4-amine]	1 to 10 µM
C[C@H](Cc1ccc(Cl)cc1)N(C)C1CCN(c2nc(N)n[nH]2)CC1 [Example 139, (R)-1-(3-amino-1H-1,2,4-triazol-5-yl)-N-(1-(4-chlorophenyl)propan-2-yl)-N-methylpiperidin-4-amine dihydrochloride]	1 to 10 µM
Nc1n[nH]c(N2CCC(CNC(=O)c3ccc(F)c(F)c3)CC2)n1 [Example 220, N-((1-(3-amino-1H-1,2,4-triazol-5-yl)piperidin-4-yl)methyl)-3,4-difluorobenzamide]	> 100 µM
Nc1n[nH]c(N2CCC(C(=O)NCc3ccc(F)cc3)CC2)n1 [Example 49, 1-(3-amino-1H-1,2,4-triazol-5-yl)-N-(4-fluorobenzyl)piperidine-4-carboxamide]	> 100 µM
Nc1n[nH]c(N2CCC(N(CCc3ccc(Cl)cc3)CC(F)(F)F)CC2)n1 [Example 186, 1-(3-amino-1H-1,2,4-triazol-5-yl)-N-(4-chlorophenethyl)-N-(2,2,2-trifluoroethyl)piperidin-4-amine hydrochloride]	10 to 100 µM
Nc1n[nH]c(N2CCC(NS(=O)(=O)Cc3cccc(Br)c3)CC2)n1 [Example 191, N-(1-(3-amino-1H-1,2,4-triazol-5-yl)piperidin-4-yl)-1-(3-bromophenyl)methanesulfonamide]	1 to 10 µM
Cc1ccc(OC(C)C(=O)N2CCN(c3nc(N)n[nH]3)CC2)c(C)c1 (stereo not drawn) [Example 35, 1-(4-(3-amino-1H-1,2,4-triazol-5-yl)piperazin-1-yl)-2-(2,4-dimethylphenoxy)propan-1-one]	> 100 µM
Nc1n[nH]c(N2CCC(N(CCc3ccc(Cl)cc3)Cc3ccc(Cl)cc3Cl)CC2)n1 [Example 163, 1-(3-amino-1H-1,2,4-triazol-5-yl)-N-(4-chlorophenethyl)-N-(2,4-dichlorobenzyl)piperidin-4-amine]	< 0.1 µM
Nc1n[nH]c(N2CCC(N(CCc3ccc(Cl)cc3)Cc3ccc4ccccc4c3)CC2)n1 [Example 112, 1-(3-amino-1H-1,2,4-triazol-5-yl)-N-(4-chlorophenethyl)-N-(naphthalen-2-ylmethyl) piperidin-4-amine]	< 0.1 µM

Structure (SMILES)	IC50
COc1ccc(OC)c(CCN(C)C2CCN(c3nc(N)n[nH]3)CC2)c1 [Example 182, 1-(3-amino-1H-1,2,4-triazol-5-yl)-N-(2,5-dimethoxyphenethyl)-N-methylpiperidin-4-amine]	10 to 100 µM
COc1cccc(CCN(C)C2CCN(c3nc(N)n[nH]3)CC2)c1OC [Example 177, 1-(3-amino-1H-1,2,4-triazol-5-yl)-N-(2,3-dimethoxyphenethyl)-N-methylpiperidin-4-amine]	10 to 100 µM
CN(C1CCN(c2nc(N)n[nH]2)CC1)C1CCc2ccccc2C1 (stereo not drawn) [Example 250, 1-(3-amino-1H-1,2,4-triazol-5-yl)-N-methyl-N-(1,2,3,4-tetrahydronaphthalen-2-yl)piperidin-4-amine dihydrochloride]	> 100 µM
Nc1n[nH]c(N2CCC(NS(=O)(=O)Cc3cccc(F)c3)CC2)n1 [Example 56, N-(1-(3-amino-1H-1,2,4-triazol-5-yl)piperidin-4-yl)-1-(3-fluorophenyl)methanesulfonamide]	10 to 100 µM
CN(CCc1ccc(Cl)cc1)C1CCN(c2nc(N)n[nH]2)CC1F (stereo not drawn) [Example 150, 1-(3-amino-1H-1,2,4-triazol-5-yl)-N-(4-chlorophenethyl)-3-fluoro-N-methylpiperidin-4-amine]	1 to 10 µM
CC(C)(C)CCN(CCc1ccc(Cl)cc1)C1CCN(c2nc(N)n[nH]2)CC1 [Example 93, 1-(3-amino-1H-1,2,4-triazol-5-yl)-N-(4-chlorophenethyl)-N-(3,3-dimethylbutyl) piperidin-4-amine]	< 0.1 µM
Nc1n[nH]c(N2CCN(C(=O)COc3ccc(Cl)c([N+](=O)[O-])c3)CC2)n1 [Example 74, 1-(4-(3-amino-1H-1,2,4-triazol-5-yl)piperazin-1-yl)-2-(4-chloro-3-nitrophenoxy)ethanone]	> 100 µM
Nc1n[nH]c(N2CCC(N(CCc3ccc(Cl)cc3)Cc3ccc(Cl)c(C(F)(F)F)c3)CC2)n1 [Example 126, 1-(3-amino-1H-1,2,4-triazol-5-yl)-N-(4-chloro-3-(trifluoromethyl)benzyl)-N-(4-chlorophenethyl)piperidin-4-amine]	< 0.1 µM
CC(CCc1ccc(Br)cc1)N1CCN(c2nc(N)n[nH]2)CC1 (stereo not drawn) [Example 19, 5-(4-(4-(4-bromophenyl)butan-2-yl)piperazin-1-yl)-1H-1,2,4-triazol-3-amine]	10 to 100 µM
Nc1n[nH]c(N2CCC(C(=O)NCc3ccccc3F)CC2)n1 [Example 51, 1-(3-amino-1H-1,2,4-triazol-5-yl)-N-(2-fluorobenzyl)piperidine-4-carboxamide]	> 100 µM
Nc1n[nH]c(N2CCC(N(CCc3ccc(Cl)cc3)CCc3ccc(Cl)cc3)CC2)n1 [Example 162, 1-(3-amino-1H-1,2,4-triazol-5-yl)-N,N-bis(4-chlorophenethyl)piperidin-4-amine]	< 0.1 µM
CN(C)c1ccc(CCN(C)C2CCN(c3nc(N)n[nH]3)CC2)cc1 [Example 178, 1-(3-amino-1H-1,2,4-triazol-5-yl)-N-(4-(dimethylamino)phenethyl)-N-methylpiperidin-4-amine]	10 to 100 µM
CN(CCc1ccc(Br)cc1)C1CCN(c2nc(N)n[nH]2)CC1CCCO (stereo not drawn) [Example 246, 3-(1-(3-amino-1H-1,2,4-triazol-5-yl)-4-((4-bromophenethyl)(methyl)amino)piperidin-3-yl)propan-1-ol]	< 0.1 µM
CC(Cc1ccc(Cl)cc1)N(C)C1CCN(c2nc(N)n[nH]2)CC1 (stereo not drawn) [Example 200, 1-(3-amino-1H-1,2,4-triazol-5-yl)-N-(1-(4-chlorophenyl)propan-2-yl)-N-methylpiperidin-4-amine]	< 0.1 µM
Nc1n[nH]c(N2CCN(CCCc3ccc(Cl)cc3)C(CO)C2)n1 (stereo not drawn) [Example 66, (4-(3-amino-1H-1,2,4-triazol-5-yl)-1-(3-(4-chlorophenyl)propyl)piperazin-2-yl)methanol]	10 to 100 µM
Cc1ccc(C)c(CNC(=O)C2CCN(c3nc(N)n[nH]3)CC2)c1 [Example 204, 1-(3-amino-1H-1,2,4-triazol-5-yl)-N-(2,5-dimethylbenzyl)piperidine-4-carboxamide]	> 100 µM
Nc1n[nH]c(N2CCC(CC(=O)Nc3ccc(Br)cc3)CC2)n1 [Example 70, 2-(1-(3-amino-1H-1,2,4-triazol-5-yl)piperidin-4-yl)-N-(4-bromophenyl)acetamide]	> 100 µM
Nc1n[nH]c(N2CCC(N(CCc3ccc(Cl)cc3)Cc3cccc(CO)c3)CC2)n1 [Example 100, (3-(((1-(3-amino-1H-1,2,4-triazol-5-yl)piperidin-4-yl)(4-chlorophenethyl)amino)methyl)phenyl)methanol]	< 0.1 µM
Nc1n[nH]c(N2CC3CN(CCOc4ccc(Br)cc4)CC3C2)n1 (stereo not drawn) [Example 29, 5-(5-(2-(4-bromophenoxy)ethyl)hexahydropyrrolo[3,4-c]pyrrol-2(1H)-yl)-1H-1,2,4-triazol-3-amine]	> 100 µM
